Reference: PubChem BioAssay AID1322 (NMMLSC, 2008)
Activity calls are given as the source filed them. No rule for the calls is given here.

Biological target: Bcl-2-like protein 1 (Homo sapiens) (UniProt Q07817)
Test: Bcl-XL binding to Bim peptide disruption – biochemical, multiplexed, bead flow cytometry, human Bcl-XL, dose response (AID 1322); as to inhibition: test concentration not given here
Settings: Bead-based flow cytometry, MCF; for inhibition: hits give high values

Sequence of Bcl-2-like protein 1 (Homo sapiens) (Q07817 whole entry, looked up): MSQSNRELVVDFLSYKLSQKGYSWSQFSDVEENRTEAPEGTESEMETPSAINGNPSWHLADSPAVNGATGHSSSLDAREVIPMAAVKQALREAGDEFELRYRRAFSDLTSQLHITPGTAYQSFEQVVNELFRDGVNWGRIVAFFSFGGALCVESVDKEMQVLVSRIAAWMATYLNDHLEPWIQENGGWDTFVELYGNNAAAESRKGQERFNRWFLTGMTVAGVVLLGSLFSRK

Compound | inhibition | other results
CCCCN(C(=O)CCC(=O)Nc1cc(C)on1)C(C(=O)NC(C)(C)C)c1cccc(OC)c1OC (centres undefined) | inactive | –
O=C1c2ccccc2C(=O)N1c1cccc2cccnc12 | – | outcome: inactive
CSc1n[nH]c2nc3c(c(=O)n12)C1(CCCC1)Cc1ccccc1-3 | – | outcome: inactive
COc1ccccc1-n1c(-c2ccccc2)c[nH]c1=S | inactive | –
Clc1nc2ccccc2cc1/C=N/Nc1nc2ccccc2[nH]1 | – | EC50: inactive
O=C(O)c1ccc(NS(=O)(=O)c2ccc3c(c2)C(=O)c2ccccc2C3=O)cc1 | inactive | –
O=C(Cc1ccccc1)N/N=C/c1cccn1-c1ccc([N+](=O)[O-])cc1 | – | outcome: inactive
O=C1N/C(=C/c2cccn2-c2ccccc2)C(=O)N1Cc1ccc(F)cc1 | – | outcome: inactive
CNc1ccc(Br)cc(C(=O)/C=C/c2cccc(OC)c2OC)c1=O | inactive | –
Clc1ccc2c(N/N=C/c3ccc(Br)cc3)ccnc2c1 | – | outcome: inactive
O=C(O)/C=C/C(=O)NNC(=O)c1ccc(Br)cc1 | – | outcome: inactive
COc1cc(OC)c([N+](=O)[O-])cc1/C=N/NC(=O)c1ccncc1 | inactive | –
CCOc1cc(/C=C2/N=C(C)C(C(=O)OC)=C2O)ccc1O | inactive | –
COC(=O)C1C2c3ccccc3OC1(C)N=c1s/c(=C/c3cnn(C)c3C)c(=O)n12 (centres undefined) | inactive | –
COc1ccc(CC(=O)Nc2ccc3nc(C)sc3c2)cc1OC | inactive | –
CNCc1ccccc1Sc1cc(O)ccc1O | – | outcome: inactive
Cc1ccc(-c2cc(-c3ccccc3Cl)c(C#N)c(N)n2)o1 | inactive | –
Cc1ccc(C)c(NC(=O)C(=O)NCc2ccccn2)c1 | – | outcome: inactive
COc1ccc(S(=O)(=O)NCCOc2cccc3cccnc23)cc1OC | – | outcome: inactive
O=C(Nc1ccccn1)c1cc2ccccc2o1 | inactive | –
O=C(C1=C(Nc2ccccc2)c2ccccc2S(=O)(=O)N1)c1ccccc1 | inactive | –
CC(C)=C1C(=O)NN(c2ccc(C)c(Cl)c2)C1=O | inactive | –
CCCCC(=O)Nc1ccc(C(=O)N2CCC(C(=O)OCC)CC2)cc1 | inactive | –
COc1ccc(CCNC(=O)c2cc(-c3ccccn3)nc3c(Cl)cccc23)cc1OC | inactive | –
Cc1cc(-c2nnc(CCC(=O)NC(C)c3cccc4ccccc34)o2)no1 (centres undefined) | – | outcome: inactive

Compound | inhibition | other results
CCOc1cccc(CNc2ccc(O)cc2)c1OCc1ccc(Cl)cc1 | inactive | –
OC(CNC1CCCCC1)COCCOc1ccc(Br)cc1 (centres undefined) | inactive | –
C#CCOCCOCCOCCNc1nc(N2CCN(C(=O)[C@H](CCCCN)n3cc(CCCC)nn3)CC2)nc(N2CCN(C(=O)[C@H](Cc3ccc(O)cc3)n3cc(CCO)nn3)CC2)n1 | inactive | –
Cc1sc(NC(=O)Cn2cnnn2)nc1-c1ccc(Cl)cc1 | inactive | –
Cc1ccc(/C=N/NC(=O)CSc2nnc(-c3ccc(Cl)cc3)n2-c2ccccc2)o1 | inactive | –
Nc1c(C(=O)NCc2ccco2)sc2nc3c(cc12)C(=O)CCC3 | inactive | –
N/C(=N\N=C/c1ccc(Br)cc1)N/N=C\c1ccc(Br)cc1 | inactive | –
N/C(=N\OC(=O)CCC1CCCC1)c1ccncc1 | – | outcome: inactive
CCN(CC)CCN(C(=O)c1ccc(N2C(=O)CCC2=O)cc1)c1nc2cc3c(cc2s1)OCCO3 | – | outcome: inactive
O=C(COC(=O)CCCN=C1NS(=O)(=O)c2ccccc21)NC(=O)NC1CCCC1 | inactive | –
CCOC(=O)c1ccc(N=c2ssnc2Cl)cc1 | – | outcome: inactive
Cc1ccc(C)c(/C=C/C(=O)c2ccccc(=O)c2O)c1 | inactive | –
NCC(c1ccccc1)c1c[nH]c2ccccc12 (centres undefined) | inactive | –
COc1cccc(-n2nnnc2SCC(=O)Nc2cccc(NC(C)=O)c2)c1 | inactive | –
Cc1nnc(Sc2cc(NCCCO)c([N+](=O)[O-])c3nonc23)s1 | inactive | –
COc1ccc(S(=O)(=O)NCCSc2ccc(Cl)cc2)cc1OC | inactive | –
S=C1NC2=C(CCC/C2=C\c2ccccc2)C(c2ccccc2)N1 (centres undefined) | inactive | –
COc1ccccc1Oc1ccc2c(c1)C(=O)N(c1cccc3ncccc13)C2=O | inactive | –
CCOC(=O)c1sc(N)c(C(=O)Nc2ccccc2OC)c1C | inactive | –
Cc1[nH]n(C(N)=S)c(=O)c1N=Nc1ccc(S(=O)(=O)N2CCCCCC2)cc1 | inactive | –
C1=CC2c3ccccc3NC(c3ccncc3)C2C1 (centres undefined) | inactive | –
CN(CCO)c1cc(Sc2nc3ccccc3s2)c2nonc2c1[N+](=O)[O-] | inactive | –
Cc1cccc(N=C2NC(=O)/C(=C/C=C/c3ccco3)S2)c1C | inactive | –
O=C(CSc1nc2ccsc2c(=O)n1Cc1ccc(C(=O)O)cc1)NCC1CCCO1 (centres undefined) | inactive | –
COc1cc(/C=C2\S/C(=N/S(=O)(=O)c3ccc(C)cc3)NC2=O)c([N+](=O)[O-])cc1OC | inactive | –

Compound | inhibition | other results
CCn1c(SCC(=O)Nc2ccccc2-c2ccccc2)nnc1-c1ccoc1C | inactive | –
Cc1ccc(-c2n[nH]c(=S)n2-c2ccccc2)cc1 | inactive | –
CC(=O)OCCNc1cc(Sc2nc3ccccc3[nH]2)c2nonc2c1[N+](=O)[O-] | inactive | –
Cc1ccc(/C=C/C(=O)Nc2ccc([N+](=O)[O-])c(NC(=O)/C=C/c3ccc(C)o3)c2)o1 | inactive | –
CC1(C(=O)N(CC(=O)NC2CCCC2)Cc2ccco2)CC(=O)N=C2C=CC=CN21 (centres undefined) | inactive | –
O=c1c2c(n3nnnc3n1Cc1ccccc1)-c1ccccc1CC21CCCC1 | inactive | –
COc1ccc(/C=C(/C(=O)c2cccs2)N2C=CC=CC2=C(C#N)C#N)cc1 | inactive | –
Cc1ccc2c(c1)c(C)c(C)n2CC(O)Cn1nc(C)c(Br)c1C (centres undefined) | inactive | –
Cc1ccc(C(=O)CCC(=O)Nc2ccc(Cl)c(S(=O)(=O)Nc3cccc(Cl)c3)c2)cc1 | inactive | –
O=C1NC(=S)S/C1=C/c1ccc(N2CCOCC2)o1 | inactive | –
O=C(Nc1ccccc1)c1ccc2nc(-c3ccco3)c(-c3ccco3)nc2c1 | inactive | –
CC1(C)SC(=S)N(NC(=O)Nc2ccccc2)C1N(O)C(=O)Nc1cccc2ccccc12 (centres undefined) | inactive | –
O=C1NC(=O)C2(Cc3c(nc4ccccn4c3=O)N3CCCCCC32)C(=O)N1Cc1ccccc1 (centres undefined) | inactive | –
O=C(OCc1nc2ccccc2[nH]1)C12CC3CC(CC(C3)C1)C2 | inactive | –
Cc1c(NC2=C(Cl)C(=O)N(c3ccccc3Cl)C2=O)c(=O)n(-c2ccccc2)n1C | inactive | –
CC(C)(C)c1nc(NCCN2CCOCC2)c2nnn(Cc3ccccc3Cl)c2n1 | inactive | –
CCOc1cc(S(=O)(=O)Nc2ccccn2)ccc1F | inactive | –
COc1cccc(/C=N/Nc2nn3cnnc3c3ccccc23)c1O | – | EC50: inactive
COc1cccc(N2CC(C(=O)Nc3nnc(SCC(=O)c4ccccc4)s3)CC2=O)c1 (centres undefined) | inactive | –
CCOC(=O)C1(CC/C(C)=N\NC(N)=O)CC(C)(C)OC1=O (centres undefined) | inactive | –
Cc1ccc(O)c(NC2=C(Cl)C(=O)N(Cc3ccccc3)C2=O)c1 | inactive | –
O=[N+]([O-])c1ccc(-c2cn(-c3ccc(Cl)cc3)c(=S)[nH]2)cc1 | inactive | –
COc1ccc(N2C(=O)/C(=C/c3cccs3)NC2=S)cc1 | inactive | –
CC(C)C(=O)N1CCN(c2ccc([N+](=O)[O-])cc2Cl)CC1 | inactive | –
CC(=O)NC(=O)Nc1sc(=S)n(C)c1C | inactive | –

Compound | inhibition | other results
Cn1c(N)c(C(=O)COC(=O)c2cc(-c3ccco3)nc3ccccc23)c(=O)n(C)c1=O | inactive | –
O=C1/C(=C/c2cccs2)Sc2ccccc21 | inactive | –
CCn1cc(C=C2C(=O)c3ccccc3C2=O)c2ccccc21 | inactive | –
CCN(CC)c1nc(N)nc(N(c2ccccc2)c2ccccc2)n1 | inactive | –
CC1Nc2ccccc2C(=O)N1NS(C)(=O)=O (centres undefined) | inactive | –
CCOc1ccc(-n2cc(-c3ccc(OC)c(OC)c3)[nH]c2=S)cc1 | – | outcome: inactive
CN1CCS/C1=C/C=C1/SC(=S)N(Cc2ccccc2)C1=O | inactive | –
Cc1ccccc1OCC(=O)N/N=C/c1ccccn1 | inactive | –
O=C(Nc1nccs1)c1ccc(COc2ccc(F)cc2)o1 | inactive | –
CC(CCc1ccccc1)NC(=O)C1CCN(S(=O)(=O)N2CCCCC2)CC1 (centres undefined) | inactive | –
Cc1ccc(-c2cc(-c3ccc(F)cc3)c(C#N)c(N)n2)o1 | inactive | –
Cn1c(N)c(C(=O)COC(=O)c2cncc(Br)c2)c(=O)n(C)c1=O | – | outcome: inactive
O=C1Nc2ccc([N+](=O)[O-])cc2OC1CCN1CCN(Cc2ccc3c(c2)OCO3)CC1 (centres undefined) | – | outcome: inactive
CCOC(=O)c1nc(Nc2ccc(Nc3ccccc3)cc2)c2ccccc2n1 | inactive | –
O=C(COCC(=O)NCc1ccccc1)NCc1ccccc1 | inactive | –
Cc1cccn2c(=O)c3cc(C(N)=S)c(=N)n(CCCN4CCOCC4)c3nc12 | inactive | –
COc1ccc(OC)c(-n2c(-c3ccc(C)cc3)n[nH]c2=S)c1 | inactive | –
S=C(Nc1ccc(N2CCOCC2)cc1)Nc1ccc2nc(-c3ccco3)c(-c3ccco3)nc2c1 | inactive | –
CC(=O)Nc1ccc(NC2=C(Cl)C(=O)c3ccccc3C2=O)cc1 | inactive | –
COCCN=c1scc(-c2cccs2)n1/N=C/c1ccc(O)c(O)c1O | inactive | –
O=C(C1=NN[C@@H]2C(=O)N(c3cccc(F)c3)C(=O)[C@H]12)c1ccc2ccccc2n1 | – | outcome: inactive
CC(NCc1ccc(-c2ccccc2)cc1)C(O)c1ccccc1 (centres undefined) | – | outcome: inactive
CCOc1c(Cl)cc(CNc2ccc(N3CCCC3)cc2)cc1OC | inactive | –
O=C(N/N=C/c1cccnc1)c1cccc(S(=O)(=O)N2CCCC2)c1 | – | outcome: inactive
